Assay results published in patent publication US20050208084A1, “Use of alkylamidomandelates as flavourings” (priority 2002, published 2005).

How the values were obtained:
[1] = cited from earlier work
[2] = Tasting the mandelic acid alkylamides (sensory panel, ethanolic solution diluted in 11% sugar solution, swallowed); assay type: in vivo; details: for estimation of pungency: scale of 1 (very weak) to 9 (very strong), 6-8 testers
Procedure: The substance to be tasted is dissolved in ethanol and the ethanolic solution is then diluted with an 11% sugar solution (final concentration: c). For tasting, in each case approximately 5 ml of the sugar solution are swallowed. If the threshold value of the substance is known, a value just above the threshold value is chosen for the tasting. A group of 6-8 testers tasted the solutions.
Where possible, the impression of pungency was estimated on a scale of 1 (very weak) to 9 (very strong).

Question: With `COc1cc(CNC(=O)CCCC/C=C/C(C)C)ccc1O` [Capsaicin, N-(4-hydroxy-3-methoxybenzyl)-8-methyl-(6E)-nonenoamide] as the compound, how does the “damage occurring in the case of frequent use and overdose” value ([1]; frequent use and overdose) read?
Answer: chronic gastritis, kidney and liver damage

Question: And the LD50 ([1]; mouse oral)?
Answer: 47 mg

Question: For `COc1cc(CNC(=O)CCCCCCC(C)C)ccc1O` [Dihydrocapsaicin, reference compound], which taste profile ([2]; 100 ppb in 11% sugar solution) is on record?
Answer: slightly delayed onset of effect in pharyngeal cavity, burning, aggressive, no development of heat

Question: Which taste profile ([2]; 200 ppb in 11% sugar solution) does the source give for `CCCCCCCCC(=O)NCc1ccc(O)c(OC)c1` [N-(3-methoxy-4-hydroxybenzyl)nonanoamide, reference compound] here?
Answer: slightly delayed onset of effect in pharyngeal cavity, little pungency on the tongue, stinging, no development of heat

Question: Which taste profile ([2]; 10 ppm in 11% sugar solution) does the source give for `CCCCCCCCNC(=O)C(O)c1ccc(O)c(O)c1` (centres unmarked) [no. 4, 2-(3,4-Dihydroxyphenyl)-2-hydroxy-N-octylacetamide] here?
Answer: pungency develops slowly; stinging, rough, slightly spicy

Question: And the estimation of pungency ([2]; 10 ppm in 11% sugar solution)?
Answer: 5

Question: For `CCCCCCCCNC(=O)C(O)c1ccc(OC)c(O)c1` (centres unmarked) [no. 6, 2-(3-Hydroxy-4-methoxyphenyl)-2-hydroxy-N-octylacetamide], which taste profile ([2]; 1 ppm in 11% sugar solution) is on record?
Answer: slightly pungent, particularly on the tongue, slight tingling, rapidly disappears again

Question: What about the estimation of pungency ([2]; 1 ppm in 11% sugar solution) of the same compound?
Answer: 3

Question: Which taste profile ([2]; 10 ppm in 11% sugar solution) does the source give for `CCCCCCCNC(=O)C(O)c1ccc(O)c(OC)c1` (centres unmarked) [no. 8, 2-(4-Hydroxy-3-methoxyphenyl)-2-hydroxy-N-heptylacetamide] here?
Answer: pungency develops; burning, slightly over-ripe

Question: What about the estimation of pungency ([2]; 10 ppm in 11% sugar solution) of the same compound?
Answer: 7

Question: For `CCCCCCCCNC(=O)C(O)c1ccc(O)c(OC)c1` (centres unmarked) [no. 9, 2-(4-Hydroxy-3-methoxyphenyl)-2-hydroxy-N-octylacetamide], which taste profile ([2]; 1 ppm in 11% sugar solution) is on record?
Answer: no pungency initially, develops suddenly, very intense and long-lasting, ginger pungency

Question: And the estimation of pungency ([2]; 1 ppm in 11% sugar solution)?
Answer: 8

Question: Which results are given for `CCCCCCCCCNC(=O)C(O)c1ccc(O)c(OC)c1` (centres unmarked) [no. 10, 2-(4-Hydroxy-3-methoxyphenyl)-2-hydroxy-N-nonylacetamide]?
Answer: taste profile ([2]; 10 ppm in 11% sugar solution): immediate onset of pungency; similar to capsaicin; estimation of pungency ([2]; 10 ppm in 11% sugar solution): 8
